The nature of this data set: activity coefficient (dimensionless); of the first substance listed, at infinite dilution; xn = mol fraction of the nth substance listed. The settings on record: 100 kPa, Liquid, Chromatography, x1 = 0.

Numbers after ± are expanded uncertainties.

In the case of `CC#N` [acetonitrile] + CC(O)C(=O)[O-].CC[N+]1(C)CCCC1, the activity coefficient (318.15 K) came to 0.773 ± 0.065; the activity coefficient (328.15 K) is 0.808 ± 0.068; the activity coefficient (338.15 K) stood at 0.844 ± 0.07; the activity coefficient (348.15 K) came to 0.88 ± 0.07; the activity coefficient (358.15 K) was 0.915 ± 0.076; the activity coefficient (368.15 K) amounted to 0.962 ± 0.079.
For the compound `c1ccccc1` [benzene] + CC(O)C(=O)[O-].CC[N+]1(C)CCCC1, the activity coefficient reads like this: (318.15 K) 2.85 ± 0.25; (328.15 K) 2.94 ± 0.25; (338.15 K) 3.04 ± 0.26; (348.15 K) 3.14 ± 0.27; (358.15 K) 3.24 ± 0.28; (368.15 K) 3.36 ± 0.29.
Regarding `CCCCO` [butan-1-ol] + CC(O)C(=O)[O-].CC[N+]1(C)CCCC1, the activity coefficient was determined as 0.335 ± 0.036 (358.15 K); 0.361 ± 0.038 (368.15 K); 0.388 ± 0.039 (378.15 K); 0.421 ± 0.041 (388.15 K); 0.453 ± 0.043 (398.15 K); 0.486 ± 0.045 (408.15 K).
As to `C1CCCCCC1` [cycloheptane] + CC(O)C(=O)[O-].CC[N+]1(C)CCCC1, the activity coefficient (308.15 K) amounted to 69.7 ± 6; the activity coefficient (318.15 K) is 64.6 ± 5.6; the activity coefficient (328.15 K) is 60.3 ± 5.2; the activity coefficient (338.15 K) was 57 ± 4.9; the activity coefficient (348.15 K) worked out at 53.8 ± 4.7; the activity coefficient (358.15 K) was 51 ± 4.4. In addition, where the note is “368.15 K”, the activity coefficient amounted to 47.8 ± 4.1.
As to `C1CCCCC1` [cyclohexane] + CC(O)C(=O)[O-].CC[N+]1(C)CCCC1, the activity coefficient (308.15 K) worked out at 52.7 ± 4.6; the activity coefficient (318.15 K) is 48.6 ± 4.2; the activity coefficient (328.15 K) stood at 45 ± 3.9; the activity coefficient (338.15 K) is 42.6 ± 3.7; the activity coefficient (348.15 K) amounted to 40.6 ± 3.5; the activity coefficient (358.15 K) was 38.4 ± 3.3. The activity coefficient (368.15 K) was found to be 36.3 ± 3.1.
Turning to `C1=CCCCC1` [cyclohexene] + CC(O)C(=O)[O-].CC[N+]1(C)CCCC1, the activity coefficient by setting is: (308.15 K) 22.4 ± 1.9; (318.15 K) 21.7 ± 1.9; (328.15 K) 20.7 ± 1.8; (338.15 K) 20.2 ± 1.7; (348.15 K) 19.7 ± 1.7; (358.15 K) 19.5 ± 1.7. Besides, the activity coefficient (368.15 K) was 18.9 ± 1.6.
Regarding `C1CCCCCCC1` [cyclooctane] + CC(O)C(=O)[O-].CC[N+]1(C)CCCC1, the activity coefficient was determined as 95.8 ± 8.3 (308.15 K); 88.7 ± 7.7 (318.15 K); 82.1 ± 7.1 (328.15 K); 77.2 ± 6.7 (338.15 K); 72.6 ± 6.3 (348.15 K); 68 ± 5.9 (358.15 K). The activity coefficient (368.15 K) was 63.9 ± 5.5.
Take `C1CCCC1` [cyclopentane] + CC(O)C(=O)[O-].CC[N+]1(C)CCCC1: the activity coefficient by setting is: (308.15 K) 31.7 ± 2.7; (318.15 K) 29.7 ± 2.6; (328.15 K) 28.2 ± 2.4; (338.15 K) 26.9 ± 2.3; (348.15 K) 25.7 ± 2.2; (358.15 K) 24.7 ± 2.1. Also, the activity coefficient (368.15 K) was determined as 23.5 ± 2.
On to `CCCCCCCCCC` [decane] + CC(O)C(=O)[O-].CC[N+]1(C)CCCC1, for which the activity coefficient runs as follows: (308.15 K) 787 ± 68; (318.15 K) 725 ± 63; (328.15 K) 651 ± 57; (338.15 K) 597 ± 52; (348.15 K) 542 ± 47; (358.15 K) 496 ± 43. Moreover, for the setting “368.15 K”, the activity coefficient is 456 ± 40.
With `CCOCC` [diethyl ether] + CC(O)C(=O)[O-].CC[N+]1(C)CCCC1, the activity coefficient by setting is: (308.15 K) 15.8 ± 1.4; (318.15 K) 15.6 ± 1.3; (328.15 K) 15.5 ± 1.3; (338.15 K) 15.1 ± 1.3; (348.15 K) 15 ± 1.3; (358.15 K) 15.1 ± 1.3. Further, the activity coefficient (368.15 K) turned out to be 14.9 ± 1.3.
On to `CC(C)OC(C)C` [diisopropyl ether] + CC(O)C(=O)[O-].CC[N+]1(C)CCCC1, for which the activity coefficient worked out at 55.3 ± 4.8 (308.15 K); 53.6 ± 4.6 (318.15 K); 52 ± 4.5 (328.15 K); 50.1 ± 4.3 (338.15 K); 48.6 ± 4.2 (348.15 K); 47.2 ± 4.1 (358.15 K). Moreover, for the setting “368.15 K”, the activity coefficient came out at 45.9 ± 4.
For the compound `CCCOCCC` [dipropyl ether] + CC(O)C(=O)[O-].CC[N+]1(C)CCCC1, the activity coefficient (308.15 K) stood at 52.1 ± 4.5; the activity coefficient (318.15 K) was 50.3 ± 4.4; the activity coefficient (328.15 K) amounted to 48.2 ± 4.2; the activity coefficient (338.15 K) turned out to be 46.2 ± 4; the activity coefficient (348.15 K) is 44.8 ± 3.9; the activity coefficient (358.15 K) was determined as 43.2 ± 3.7. Besides, the activity coefficient (368.15 K) is 41.9 ± 3.6.
In the case of `CCO` [ethanol] + CC(O)C(=O)[O-].CC[N+]1(C)CCCC1, the activity coefficient is 0.174 ± 0.03 (358.15 K); 0.187 ± 0.03 (368.15 K); 0.201 ± 0.031 (378.15 K); 0.219 ± 0.031 (388.15 K); 0.234 ± 0.032 (398.15 K); 0.255 ± 0.033 (408.15 K).
With `CCOC(C)=O` [ethyl acetate] + CC(O)C(=O)[O-].CC[N+]1(C)CCCC1, the activity coefficient was 5.04 ± 0.43 (318.15 K); 5.14 ± 0.44 (328.15 K); 5.23 ± 0.45 (338.15 K); 5.32 ± 0.46 (348.15 K); 5.43 ± 0.47 (358.15 K); 5.56 ± 0.48 (368.15 K). Under “378.15 K”, the activity coefficient was determined as 5.66 ± 0.49.
`CCc1ccccc1` [ethylbenzene] + CC(O)C(=O)[O-].CC[N+]1(C)CCCC1: the activity coefficient came out at 9.27 ± 0.8 (318.15 K); 9.36 ± 0.81 (328.15 K); 9.45 ± 0.82 (338.15 K); 9.58 ± 0.83 (348.15 K); 9.68 ± 0.84 (358.15 K); 9.86 ± 0.85 (368.15 K).
For `CCCCCCC` [heptane] + CC(O)C(=O)[O-].CC[N+]1(C)CCCC1, the activity coefficient (308.15 K) turned out to be 213 ± 18; the activity coefficient (318.15 K) was found to be 196 ± 17; the activity coefficient (328.15 K) was determined as 180 ± 16; the activity coefficient (338.15 K) was 167 ± 14; the activity coefficient (348.15 K) worked out at 154 ± 13; the activity coefficient (358.15 K) is 144 ± 12. Further, the activity coefficient (368.15 K) stood at 133 ± 12.
`C=CCCCC` [hex-1-ene] + CC(O)C(=O)[O-].CC[N+]1(C)CCCC1: the activity coefficient by setting is: (308.15 K) 56 ± 4.8; (318.15 K) 53.3 ± 4.6; (328.15 K) 50.9 ± 4.4; (338.15 K) 48.7 ± 4.2; (348.15 K) 46.6 ± 4; (358.15 K) 44.7 ± 3.9. In addition, the activity coefficient (368.15 K) was found to be 42.9 ± 3.7.
Turning to `CCCCCC` [hexane] + CC(O)C(=O)[O-].CC[N+]1(C)CCCC1, the activity coefficient runs as follows: (308.15 K) 135 ± 12; (318.15 K) 125 ± 11; (328.15 K) 114 ± 10; (338.15 K) 107 ± 9; (348.15 K) 99.9 ± 8.7; (358.15 K) 94.6 ± 8.2. For the same compound, the activity coefficient (368.15 K) came to 88.7 ± 7.7.
On to `CO` [methanol] + CC(O)C(=O)[O-].CC[N+]1(C)CCCC1, for which the activity coefficient by setting is: (358.15 K) 0.086 ± 0.03; (368.15 K) 0.095 ± 0.03; (378.15 K) 0.105 ± 0.03; (388.15 K) 0.116 ± 0.03; (398.15 K) 0.125 ± 0.03; (408.15 K) 0.137 ± 0.029.
Regarding `CCCC(=O)OC` [methyl butanoate] + CC(O)C(=O)[O-].CC[N+]1(C)CCCC1, the activity coefficient reads like this: (318.15 K) 7.46 ± 0.64; (328.15 K) 7.56 ± 0.65; (338.15 K) 7.6 ± 0.66; (348.15 K) 7.74 ± 0.67; (358.15 K) 7.84 ± 0.68; (368.15 K) 8.01 ± 0.69. For the same compound, the activity coefficient (378.15 K) was found to be 8.08 ± 0.7.
Take `COC(C)=O` [methyl ethanoate] + CC(O)C(=O)[O-].CC[N+]1(C)CCCC1: the activity coefficient by setting is: (318.15 K) 2.95 ± 0.25; (328.15 K) 3.03 ± 0.26; (338.15 K) 3.1 ± 0.27; (348.15 K) 3.18 ± 0.27; (358.15 K) 3.25 ± 0.28; (368.15 K) 3.37 ± 0.29. Further, the activity coefficient (378.15 K) came to 3.45 ± 0.3.
As to `CCC(=O)OC` [methyl propanoate] + CC(O)C(=O)[O-].CC[N+]1(C)CCCC1, the activity coefficient is, setting by setting: (318.15 K) 4.71 ± 0.41; (328.15 K) 4.79 ± 0.41; (338.15 K) 4.88 ± 0.42; (348.15 K) 4.97 ± 0.43; (358.15 K) 5.06 ± 0.44; (368.15 K) 5.22 ± 0.45. Besides, where the note is “378.15 K”, the activity coefficient worked out at 5.32 ± 0.46.
Consider `CC1CCCCC1` [methylcyclohexane] + CC(O)C(=O)[O-].CC[N+]1(C)CCCC1, for which the activity coefficient runs as follows: (308.15 K) 87.4 ± 7.6; (318.15 K) 80.7 ± 7; (328.15 K) 75 ± 6.5; (338.15 K) 69.7 ± 6; (348.15 K) 65.7 ± 5.7; (358.15 K) 61.8 ± 5.3. Further, the activity coefficient (368.15 K) was determined as 57.8 ± 5.
With `CCCCCCCCC` [nonane] + CC(O)C(=O)[O-].CC[N+]1(C)CCCC1, the activity coefficient (308.15 K) was determined as 518 ± 45; the activity coefficient (318.15 K) came out at 474 ± 41; the activity coefficient (328.15 K) turned out to be 423 ± 37; the activity coefficient (338.15 K) is 389 ± 34; the activity coefficient (348.15 K) is 358 ± 31; the activity coefficient (358.15 K) came to 326 ± 28. For the setting “368.15 K”, the activity coefficient was 297 ± 26.
As to `C=CCCCCCC` [oct-1-ene] + CC(O)C(=O)[O-].CC[N+]1(C)CCCC1, the activity coefficient (308.15 K) is 145 ± 13; the activity coefficient (318.15 K) was determined as 136 ± 12; the activity coefficient (328.15 K) worked out at 127 ± 11; the activity coefficient (338.15 K) was 120 ± 10; the activity coefficient (348.15 K) came out at 114 ± 10; the activity coefficient (358.15 K) was 108 ± 9. Besides, the activity coefficient (368.15 K) worked out at 103 ± 9.

Source of the values: the NIST ThermoML archive (doi:10.1016/j.jct.2015.05.014).
